Assay results as given in patent publication US10799474B2, “Method of treating leukemia utilizing somatic cell reprogramming” (priority 2016, dated 2020).

Tested on: normal hematopoietic stem cells/progenitor cells
Details: mouse, in vivo
Experimental: 7. Reprogramming factors have less effect on normal hematopoietic stem cells/progenitor cells: bone marrow cells and leukemic cells of OSKM mice were co-transplanted into lethally irradiated mice. After leukemia developed in the mice, Dox was added into the drinking water of the mice in experimental group for 7 days. […] It can be seen from FIG. 5A that the ratios of normal hematopoietic stem cells and progenitor cells in the mouse bone marrows were not affected after Dox treatment. […] It can be seen from FIG. 5B that the apoptosis of normal hematopoietic stem cells and progenitor cells was not affected after Dox treatment. […] It can be seen from FIGS. 5A, 5B, and 5C that the number and apoptosis of normal hematopoietic stem cells/progenitor cells were not affected and the mice in the experimental group were recovered from leukemia.

Q: Which “apoptosis of normal hematopoietic stem cells and progenitor cells in the bone marrow” value does the source give for C[C@H]1c2cccc(O)c2C(=O)C2=C(O)[C@]3(O)C(=O)C(C(N)=O)=C(O)[C@@H](N(C)C)[C@@H]3[C@@H](O)[C@@H]21 [Dox, doxycycline] here?
A: not affected

Q: What about the “ratios of normal hematopoietic stem cells and progenitor cells in the bone marrow” value of the same compound?
A: not affected
